From paper PMC10971807 (Marine Drugs, 2024)
Values joined by “and” are separate entries in the source; they are usually repeats but may differ in a detail not shown here. Equal entries are not always repeated. Where a SMILES comes first, the peptide text is derived from it. Bridges are numbered along the chain shown (N, C = ends). [ ]: non-standard residue; d: D form. Dab = NCC[C@H](N)C(=O)O; Dap = NC[C@H](N)C(=O)O

What was measured:
hα9α10 nAChR = hα9α10 nAChR (Homo sapiens, UniProt Q9GZZ6+Q9UGM1); test: cell-based; conditions: for IC50: IC50, inhibition of ACh-evoked currents at hα9α10 nAChRs
hα9α10 nAChR, sequence (Q9UGM1 26-479 limits assumed): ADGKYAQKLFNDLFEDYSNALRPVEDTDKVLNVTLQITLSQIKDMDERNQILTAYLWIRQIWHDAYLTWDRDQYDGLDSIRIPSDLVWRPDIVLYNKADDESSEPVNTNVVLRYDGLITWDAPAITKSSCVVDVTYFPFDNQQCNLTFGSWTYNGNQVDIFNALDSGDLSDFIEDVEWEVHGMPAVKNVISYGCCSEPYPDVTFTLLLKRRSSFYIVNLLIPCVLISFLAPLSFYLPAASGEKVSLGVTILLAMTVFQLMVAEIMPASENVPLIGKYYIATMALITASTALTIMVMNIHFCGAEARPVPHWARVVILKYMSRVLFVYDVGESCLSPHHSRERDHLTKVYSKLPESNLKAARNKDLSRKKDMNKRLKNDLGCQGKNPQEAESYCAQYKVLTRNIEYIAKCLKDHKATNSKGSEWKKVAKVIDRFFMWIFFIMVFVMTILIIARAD
hα9α10 nAChR, sequence (Q9GZZ6 25-450 limits assumed): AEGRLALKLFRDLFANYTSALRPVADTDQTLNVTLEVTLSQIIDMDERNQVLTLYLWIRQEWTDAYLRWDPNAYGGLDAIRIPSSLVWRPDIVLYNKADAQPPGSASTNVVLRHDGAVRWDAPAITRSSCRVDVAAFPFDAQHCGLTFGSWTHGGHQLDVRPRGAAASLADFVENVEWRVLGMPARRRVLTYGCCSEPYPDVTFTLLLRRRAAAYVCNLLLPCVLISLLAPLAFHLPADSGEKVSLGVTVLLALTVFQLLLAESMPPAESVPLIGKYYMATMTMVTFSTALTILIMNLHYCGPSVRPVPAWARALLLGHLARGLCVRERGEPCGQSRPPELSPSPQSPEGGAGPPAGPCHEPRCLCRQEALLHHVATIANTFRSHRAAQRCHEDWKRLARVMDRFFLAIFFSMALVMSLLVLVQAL

hα3β2 nAChR = hα3β2 nAChR (Homo sapiens, UniProt P17787+P32297); test: cell-based
hα3β2 nAChR, sequence (P32297 32-505 limits assumed): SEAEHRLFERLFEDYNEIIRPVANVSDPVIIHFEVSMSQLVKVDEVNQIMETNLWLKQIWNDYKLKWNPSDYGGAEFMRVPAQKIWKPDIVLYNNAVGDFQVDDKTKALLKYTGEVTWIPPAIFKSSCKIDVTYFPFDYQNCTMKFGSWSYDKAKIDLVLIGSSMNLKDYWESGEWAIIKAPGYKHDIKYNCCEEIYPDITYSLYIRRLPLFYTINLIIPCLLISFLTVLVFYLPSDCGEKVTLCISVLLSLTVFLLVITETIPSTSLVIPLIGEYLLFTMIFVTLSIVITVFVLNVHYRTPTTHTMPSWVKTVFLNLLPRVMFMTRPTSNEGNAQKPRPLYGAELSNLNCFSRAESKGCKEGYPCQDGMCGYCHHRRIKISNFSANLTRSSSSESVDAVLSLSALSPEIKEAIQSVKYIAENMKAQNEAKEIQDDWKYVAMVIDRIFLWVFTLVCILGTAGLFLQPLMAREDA
hα3β2 nAChR, sequence (P17787 26-502 limits assumed): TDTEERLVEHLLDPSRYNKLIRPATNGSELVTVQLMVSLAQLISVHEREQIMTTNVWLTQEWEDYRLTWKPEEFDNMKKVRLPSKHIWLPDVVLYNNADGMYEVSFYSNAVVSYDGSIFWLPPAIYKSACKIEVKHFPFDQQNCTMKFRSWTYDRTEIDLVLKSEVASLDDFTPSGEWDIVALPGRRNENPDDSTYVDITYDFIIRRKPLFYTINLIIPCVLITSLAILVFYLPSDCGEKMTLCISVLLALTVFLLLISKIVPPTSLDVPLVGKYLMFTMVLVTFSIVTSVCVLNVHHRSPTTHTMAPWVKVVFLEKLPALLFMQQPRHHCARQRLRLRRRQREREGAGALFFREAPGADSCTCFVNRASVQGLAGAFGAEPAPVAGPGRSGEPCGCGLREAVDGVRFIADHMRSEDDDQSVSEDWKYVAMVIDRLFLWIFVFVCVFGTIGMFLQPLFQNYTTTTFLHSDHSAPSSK

hα7 nAChR = hα7 nAChR (Homo sapiens, UniProt P36544); test: cell-based
hα7 nAChR, sequence (P36544 23-502 limits assumed): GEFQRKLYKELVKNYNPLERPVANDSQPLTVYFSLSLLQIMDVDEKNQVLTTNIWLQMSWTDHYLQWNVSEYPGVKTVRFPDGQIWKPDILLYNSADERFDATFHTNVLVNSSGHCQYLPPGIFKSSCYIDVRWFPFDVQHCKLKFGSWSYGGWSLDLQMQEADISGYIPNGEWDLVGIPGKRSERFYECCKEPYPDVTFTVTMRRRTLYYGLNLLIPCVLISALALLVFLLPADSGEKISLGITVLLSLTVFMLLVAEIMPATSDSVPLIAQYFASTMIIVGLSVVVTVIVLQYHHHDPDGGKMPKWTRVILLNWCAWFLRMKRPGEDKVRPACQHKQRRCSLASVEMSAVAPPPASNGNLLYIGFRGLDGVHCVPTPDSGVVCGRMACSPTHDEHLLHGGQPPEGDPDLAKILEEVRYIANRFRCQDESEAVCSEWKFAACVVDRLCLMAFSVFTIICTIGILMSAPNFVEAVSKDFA

hα3β4 nAChR = hα3β4 nAChR (Homo sapiens, UniProt P30926+P32297); format: cell-based
hα3β4 nAChR, sequence (P32297 32-505 limits assumed): as the sequence (P32297 32-505 limits assumed) above
hα3β4 nAChR, sequence (P30926 22-498 limits assumed): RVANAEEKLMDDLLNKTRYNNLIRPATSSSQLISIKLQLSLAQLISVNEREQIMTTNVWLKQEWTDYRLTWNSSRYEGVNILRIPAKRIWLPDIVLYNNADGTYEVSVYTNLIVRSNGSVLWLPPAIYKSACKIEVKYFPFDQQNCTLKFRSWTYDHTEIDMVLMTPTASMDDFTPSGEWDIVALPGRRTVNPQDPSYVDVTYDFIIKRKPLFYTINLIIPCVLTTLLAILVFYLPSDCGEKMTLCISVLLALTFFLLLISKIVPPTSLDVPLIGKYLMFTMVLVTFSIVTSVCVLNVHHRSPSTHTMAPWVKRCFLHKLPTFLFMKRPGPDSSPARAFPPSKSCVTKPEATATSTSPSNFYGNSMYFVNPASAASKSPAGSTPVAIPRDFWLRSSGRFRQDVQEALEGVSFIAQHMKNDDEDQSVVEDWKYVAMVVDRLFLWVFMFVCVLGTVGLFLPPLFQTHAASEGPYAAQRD

hα4β2 nAChR = hα4β2 nAChR (Homo sapiens, UniProt P17787+P43681); format: cell-based
hα4β2 nAChR, sequence (P43681 29-627 limits assumed): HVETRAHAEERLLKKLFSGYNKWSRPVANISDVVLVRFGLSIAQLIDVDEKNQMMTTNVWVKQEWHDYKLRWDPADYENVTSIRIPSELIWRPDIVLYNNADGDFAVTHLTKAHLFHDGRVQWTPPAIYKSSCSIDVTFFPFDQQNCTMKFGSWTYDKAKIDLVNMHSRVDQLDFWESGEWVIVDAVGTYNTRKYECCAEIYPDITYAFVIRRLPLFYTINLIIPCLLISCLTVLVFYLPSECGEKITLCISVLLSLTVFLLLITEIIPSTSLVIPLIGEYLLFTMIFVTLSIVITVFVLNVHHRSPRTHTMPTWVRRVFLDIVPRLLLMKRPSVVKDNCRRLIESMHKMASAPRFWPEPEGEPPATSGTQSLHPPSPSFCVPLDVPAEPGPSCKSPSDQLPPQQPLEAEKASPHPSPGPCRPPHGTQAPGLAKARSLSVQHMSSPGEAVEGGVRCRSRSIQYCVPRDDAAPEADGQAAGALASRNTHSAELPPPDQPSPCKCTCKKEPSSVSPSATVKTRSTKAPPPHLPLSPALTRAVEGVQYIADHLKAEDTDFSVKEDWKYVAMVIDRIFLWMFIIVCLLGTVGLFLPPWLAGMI
hα4β2 nAChR, sequence (P17787 26-502 limits assumed): as the sequence (P17787 26-502 limits assumed) above

hα4β4 nAChR = hα4β4 nAChR (Homo sapiens, UniProt P30926+P43681); format: cell-based
hα4β4 nAChR, sequence (P43681 29-627 limits assumed): as the sequence (P43681 29-627 limits assumed) above
hα4β4 nAChR, sequence (P30926 22-498 limits assumed): as the sequence (P30926 22-498 limits assumed) above

## CC(C)C[C@@H]1NC(=O)[C@H](CCC(=O)O)NC(=O)[C@@H]2CCCN2C(=O)[C@H](Cc2c[nH]cn2)NC(=O)[C@H](CC(N)=O)NC(=O)[C@H](C(C)C)NC(=O)[C@H](CO)NC(=O)[C@@H]2CSSC[C@H](NC(=O)CN)C(=O)N[C@@H](CSSC[C@@H](C(N)=O)NC1=O)C(=O)N[C@@H](CCN)C(=O)N[C@@H](Cc1c[nH]cn1)C(=O)N1CCC[C@H]1C(=O)N[C@@H](C)C(=O)N2 [PeIA[S4Dab]] (H-GCC[Dab]HPACSVNHPELC-NH2; disulfide 2-8, 3-16)
hα9α10 nAChR
  Enhancement of activity (IC50) at hα9α10 relative to PeIA: ~ 4 fold
  IC50: 5.32 nM and 5.3 nM

## CC(C)C[C@@H]1NC(=O)[C@H](CCC(=O)O)NC(=O)[C@@H]2CCCN2C(=O)[C@H](Cc2c[nH]cn2)NC(=O)[C@H](CC(N)=O)NC(=O)[C@H](C(C)C)NC(=O)[C@H](CN)NC(=O)[C@@H]2CSSC[C@H](NC(=O)CN)C(=O)N[C@@H](CSSC[C@@H](C(N)=O)NC1=O)C(=O)N[C@@H](CN)C(=O)N[C@@H](Cc1c[nH]cn1)C(=O)N1CCC[C@H]1C(=O)N[C@@H](C)C(=O)N2 [PeIA[S4Dap, S9Dap]] (H-GCC[Dap]HPAC[Dap]VNHPELC-NH2; disulfide 2-8, 3-16)
hα9α10 nAChR
  Enhancement of activity (IC50) at hα9α10 relative to PeIA: ~24 fold
  Potency at hα9α10 relative to dimeric PeIA: approximately two-fold
  IC50: 0.93 nM
hα3β2 nAChR
  IC50: 32.8 nM
hα7 nAChR
  IC50: 162 nM

## CC(C)C[C@@H]1NC(=O)[C@H](CCC(=O)O)NC(=O)[C@@H]2CCCN2C(=O)[C@H](Cc2c[nH]cn2)NC(=O)[C@H](CC(N)=O)NC(=O)[C@H](C(C)C)NC(=O)[C@H](CO)NC(=O)[C@@H]2CSSC[C@H](NC(=O)CN)C(=O)N[C@@H](CSSC[C@@H](C(N)=O)NC1=O)C(=O)N[C@@H](CN)C(=O)N[C@@H](Cc1c[nH]cn1)C(=O)N1CCC[C@H]1C(=O)N[C@@H](C)C(=O)N2 [PeIA[S4Dap]] (H-GCC[Dap]HPACSVNHPELC-NH2; disulfide 2-8, 3-16)
hα9α10 nAChR
  Enhancement of activity (IC50) at hα9α10 relative to PeIA: ~13 fold
  IC50: 1.74 nM

## CC(C)C[C@@H]1NC(=O)[C@H](CCC(=O)O)NC(=O)[C@@H]2CCCN2C(=O)[C@H](Cc2c[nH]cn2)NC(=O)[C@H](CC(N)=O)NC(=O)[C@H](C(C)C)NC(=O)[C@H](CN)NC(=O)[C@@H]2CSSC[C@H](NC(=O)CN)C(=O)N[C@@H](CSSC[C@@H](C(N)=O)NC1=O)C(=O)N[C@@H](CO)C(=O)N[C@@H](Cc1c[nH]cn1)C(=O)N1CCC[C@H]1C(=O)N[C@@H](C)C(=O)N2 [PeIA[S9Dap]] (H-GCCSHPAC[Dap]VNHPELC-NH2; disulfide 2-8, 3-16)
hα9α10 nAChR
  Enhancement of activity (IC50) at hα9α10 relative to PeIA: ~5 fold
  IC50: 4.67 nM

## CC(C)C[C@@H]1NC(=O)[C@H](CCC(=O)O)NC(=O)[C@@H]2CCCN2C(=O)[C@H](Cc2c[nH]cn2)NC(=O)[C@H](CC(N)=O)NC(=O)[C@H](C(C)C)NC(=O)[C@H](CO)NC(=O)[C@@H]2CSSC[C@H](NC(=O)CN)C(=O)N[C@@H](CSSC[C@@H](C(N)=O)NC1=O)C(=O)N[C@@H](CO)C(=O)N[C@@H](Cc1c[nH]cn1)C(=O)N1CCC[C@H]1C(=O)N[C@@H](C)C(=O)N2 [PeIA] (H-GCCSHPACSVNHPELC-NH2; disulfide 2-8, 3-16)
hα3β4 nAChR
  Inhibition of ACh-evoked currents at hα3β4: < 1%
hα4β2 nAChR
  Inhibition of ACh-evoked currents at hα4β2: < 1%
hα4β4 nAChR
  Inhibition of ACh-evoked currents at hα4β4: < 1%

## CC(C)C[C@@H]1NC(=O)[C@H](CCC(=O)O)NC(=O)[C@@H]2CCCN2C(=O)[C@H](Cc2cnc[nH]2)NC(=O)[C@H](CC(N)=O)NC(=O)[C@H](C(C)C)NC(=O)[C@H](CO)NC(=O)[C@@H]2CSSC[C@H](NC(=O)CN)C(=O)N[C@@H](CSSC[C@@H](C(N)=O)NC1=O)C(=O)N[C@@H](CO)C(=O)N[C@@H](Cc1cnc[nH]1)C(=O)N1CCC[C@H]1C(=O)N[C@@H](C)C(=O)N2 [PeIA] (H-GCCSHPACSVNHPELC-NH2; disulfide 2-8, 3-16)
hα3β2 nAChR
  IC50: 59.8 nM
